Experiment: In vivo pharmacokinetic study in male CD1 mice
Details: mouse
Procedure: Male CD1 mice (22–24 g, 6 weeks old, SLAC Laboratory Animal Co. Ltd.) were group-housed in ventilated cages and had free access to water and food. They were maintained under a […] at controlled temperature and relative humidity. All efforts were made to minimize animal suffering and to use the minimal number of animals required to produce reliable results. All procedures were performed in accordance with the Ethical Guidelines on the Protection of Animals Used for Scientific Purposes at the DMPK Group at Shanghai ChemPartner Co., Ltd. 22m was administrated intravenously (i.v.) at 3 mg kg^–1 (vehicle: 100% saline at 0.6 mg mL^–1) via tail vein injection (N = 18) and via oral administration (p.o.) at 10 mg kg^–1 (vehicle: 100% saline at 2.0 mg mL^–1) by oral gavage (N = 18). Sample collection. Samples were collected at 0.25, 0.5, 1, 4, 8, and 24 h. Animals were sacrificed 24 h after 22m administration; plasma, brain, and CSF samples were collected and stored at −80 °C. Blood collection: The animal was restrained manually, and approximately 150 μL of blood/time point was collected into the K2EDTA tube via retro orbital puncture under anesthesia with isoflurane. The blood sample was put on ice and centrifuged to obtain the plasma sample (2000 × g, 5 min under 4 °C) within 15 min and then acidified following 100 μL of plasma + 1.0 μL of formic acid. An aliquot of 20 μL sample (pretreatment with 1% formic acid) was added with 200 μL of IS (propranolol, 40 ng mL^–1) in MeCN. The mixture was vortexed for 5 min and centrifuged at 6000 rpm for 10 min. The 0.5 μL mixture was injected into LC/MS/MS. Brain collection: Brain was removed and immediately homogenized immediately for 2 min with three volumes (v/w) of homogenizing solution (PBS:formic acid = 100:1), and then the solution was stored in tubes under −70 °C until analysis. An aliquot of 20 μL sample was added with 200 μL of MeCN, which contains IS (propranolol, 40 ng mL^–1) for protein precipitation. The mixture was vortexed for 5 min and centrifuged at 6000 rpm for 10 min. The 0.5 μL mixture was injected into LC/MS/MS. CSF collection: A midline incision was made on the neck. The muscle under the skin was cut to expose the cisterna magna. The CSF was collected by capillary. An aliquot of 3 μL sample was added with 90 μL of IS (propranolol, 40 ng mL^–1) in MeCN:H2O = 2:1 (added 1% formic acid). The mixture was vortexed for 5 min and centrifuged at 6000 rpm for 10 min. The 1.5 μL mixture was injected into LC/MS/MS. 22m sample levels were monitored on an LC/MS/MS-19 (API5500, Qtriple) system, using the calibration curve and […] as internal standard. Chromatography was carried out on a Waters BEH C18 column (2.1 × 50 mm, 1.7 μm) at 60 °C, setting a flow rate of 0.60 mL min^–1. Mobile phases were as follows: A = H2O/0.025% formic acid/1 mM NH4OAc and B = MeOH/0.025% formic acid/1 mM NH4OAc. After the initial 0.20 min at 10% of mobile phase B, the percentage of mobile phase B increased at 70% at 0.50 min, reaching steadily 90% in the range of 0.80–1.30 min. Then the system returned to the initial conditions in a single step until 1.80 min. The following parent (m/z)/daughter (m/z) transitions were monitored: 22m: m/z = 332.20/[…] Da; […] (IS): m/z: 260.30/116.10 Da.

[1] = plasma, oral bioavailability, 10 mg kg^–1 p.o.

CC(C)CNC(=O)n1c(=O)oc2cc(C3CCN(C)CC3)ccc21 [22m, N-Isobutyl-6-(1-methyl-4-piperidyl)-2-oxo-1,3-benzoxazole-3-carboxamide]
AUC at 24 h (iv, CSF, 3 mg kg^–1 i.v.): 77.8 ng·h/mL
Cmax at 24 h (iv, CSF, 3 mg kg^–1 i.v.): 71.6 ng/mL
Tmax (iv, CSF, 3 mg kg^–1 i.v.): 0.25 h
half-life at 24 h (iv, CSF, 3 mg kg^–1 i.v.): 0.661 h
AUC at 24 h (iv, brain, 3 mg kg^–1 i.v.): 10100 ng·h/mL
Cmax at 24 h (iv, brain, 3 mg kg^–1 i.v.): 6440 ng/mL
Tmax (iv, brain, 3 mg kg^–1 i.v.): 0.25 h
half-life at 24 h (iv, brain, 3 mg kg^–1 i.v.): 1.01 h
AUC at 24 h (iv, plasma, 3 mg kg^–1 i.v.): 212 ng·h/mL
half-life (iv, plasma, 3 mg kg^–1 i.v.): 1 h
half-life at 24 h (iv, plasma, 3 mg kg^–1 i.v.): 1.26 h
clearance at 24 h (iv, plasma, 3 mg kg^–1 i.v., read-out: Cl (L h^–1 kg^–1) (converted)): 235 mL/min/kg
Vd at 24 h (iv, plasma, 3 mg kg^–1 i.v., read-out: Vdss (L kg^–1)): 12.5 L/kg
bioavailability [1]: 58%
bioavailability at 24 h [1]: 58.3%
AUC at 24 h (po, CSF, 10 mg kg^–1 p.o.): 119 ng·h/mL
Cmax at 24 h (po, CSF, 10 mg kg^–1 p.o.): 52.2 ng/mL
Tmax (po, CSF, 10 mg kg^–1 p.o.): 1 h
half-life at 24 h (po, CSF, 10 mg kg^–1 p.o.): 1.23 h
AUC at 24 h (po, brain, 10 mg kg^–1 p.o.): 14600 ng·h/mL
Cmax at 24 h (po, brain, 10 mg kg^–1 p.o.): 6900 ng/mL
Tmax (po, brain, 10 mg kg^–1 p.o.): 1 h
half-life at 24 h (po, brain, 10 mg kg^–1 p.o.): 1.18 h
AUC at 24 h (po, plasma, 10 mg kg^–1 p.o.): 412 ng·h/mL
Cmax at 24 h (po, plasma, 10 mg kg^–1 p.o.): 216 ng/mL
Tmax at 24 h (po, plasma, 10 mg kg^–1 p.o.): 0.5 h
half-life at 24 h (po, plasma, 10 mg kg^–1 p.o.): 1.03 h

— publication PMC7997574, “Lead Optimization of Benzoxazolone Carboxamides as Orally Bioavailable and CNS Penetrant Acid Ceramidase Inhibitors” (Journal of Medicinal Chemistry, 2020)
